Among the data in patent US10023558B2, “Compounds” (CHIESI FARMACEUTICI S.P.A., priority 2016, dated 2018) are IC50 values, retold here.

Molecules are shown by their SMILES.

This assay addresses T1, human neutrophil elastase (HNE) (Homo sapiens, UniProt P08246).
T1 construct: purchased Sigma E8140
T1 sequence (P08246 30-247 limits assumed): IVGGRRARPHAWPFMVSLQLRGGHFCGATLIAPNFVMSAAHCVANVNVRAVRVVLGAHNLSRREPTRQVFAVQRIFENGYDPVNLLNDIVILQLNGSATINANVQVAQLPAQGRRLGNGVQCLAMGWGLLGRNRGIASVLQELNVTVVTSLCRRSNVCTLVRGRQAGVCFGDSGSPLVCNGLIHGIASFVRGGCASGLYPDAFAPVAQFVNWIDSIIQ
The assay can be described thus: HNE Enzyme Assay (fluorogenic peptide substrate MeOSuc-Ala-Ala-Pro-Val-AMC). The assay is classed as biochemical. The settings on record: human leukocyte elastase 0.00072 U/mL, substrate 100 μM, 25° C., 30 minutes, at least two separate experiments; read-out: HNE inhibition (IC50 values). On the procedure:
Compounds of this invention were tested for potency in a human neutrophil elastase (HNE) enzyme activity assay.
Assays were performed in 96-well plates in a total assay volume of 100 μL. The final concentration of elastase enzyme (human leukocyte elastase, Sigma E8140) was 0.00072 U/mL. The peptide substrate (MeOSuc-Ala-Ala-Pro-Val-AMC, Calbiochem #324740) was used at a final concentration of 100 μM. The final concentration of DMSO was 1% in the assay buffer (0.05M Tris.HCl, 0.1M NaCl, 0.1M CaCl2, 0.0005% Brij-35, pH 7.5). The enzymatic reaction was started by addition of the enzyme and incubated at 25° C. for 30 minutes. After incubation, the reaction was stopped by addition of soybean trypsin inhibitor (Sigma T9003) at a final concentration of 50 μg/well. Fluorescence was measured using a Molecular Devices fluorescence plate reader using 380 nm excitation and 460 nm emission wavelengths.
A concentration response to each compound was performed and the effect of compound in each experiment was expressed as a percentage inhibition of the control enzyme fluorescence. Dose response curves were plotted and compound potency (IC50) was determined. Compounds were tested in at least two separate experiments.
For orientation: IC50 means the concentration that gives 50% inhibition. As to `Cc1c(-c2ccnn2-c2ccc(C#N)cc2)n(C(=O)N[C@@H](C)c2ncc(CN(C)C)o2)c(=O)n1-c1cccc(C(F)(F)F)c1` [Example 16, 5-[2-(4-Cyano-phenyl)-2H-pyrazol-3-yl]-4-methyl-2-oxo-3-(3-trifluoromethyl-phenyl)-2,3-dihydro-imidazole-1-carboxylic acid [(S)-1-(5-dimethylaminomethyl-oxazol-2-yl)-ethyl]-amide], the half-inhibitory concentration (IC50) is under 1 nM.

Take `Cc1c(-c2ccnn2-c2ccc(C#N)cc2)n(C(=O)NC2CCN(C(=O)CN(C)C)CC2)c(=O)n1-c1cccc(C(F)(F)F)c1` [Example 17, 5-[2-(4-Cyano-phenyl)-2H-pyrazol-3-yl]-4-methyl-2-oxo-3-(3-trifluoromethyl-phenyl)-2,3-dihydro-imidazole-1-carboxylic acid [1-(2-dimethylamino-acetyl)-piperidin-4-yl]-amide]: the IC50 is under 1 nM.

`Cc1c(-c2ccnn2-c2ccc(C#N)cc2)n(C(=O)N[C@@H](C)C(=O)N(C)CC2CCN(C)CC2)c(=O)n1-c1cccc(C(F)(F)F)c1` [Example 18, 5-[2-(4-Cyano-phenyl)-2H-pyrazol-3-yl]-4-methyl-2-oxo-3-(3-trifluoromethyl-phenyl)-2,3-dihydro-imidazole-1-carboxylic acid {(S)-1-[methyl-(1-methyl-piperidin-4-ylmethyl)-carbamoyl]-ethyl}-amide]: the IC50 was under 1 nM.

Consider `Cc1c(-c2ccnn2-c2ccc(C#N)cc2)n(C(=O)N[C@@H](C)C(=O)N2CCC(N(C)C)CC2)c(=O)n1-c1cccc(C(F)(F)F)c1` [Example 19, 5-[2-(4-Cyano-phenyl)-2H-pyrazol-3-yl]-4-methyl-2-oxo-3-(3-trifluoromethyl-phenyl)-2,3-dihydro-imidazole-1-carboxylic acid [(S)-2-(4-dimethylamino-piperidin-1-yl)-1-methyl-2-oxo-ethyl]-amide], for which the IC50 is under 1 nM.

In the case of `Cc1c(-c2ccnn2-c2ccc(C#N)cc2)n(C(=O)N[C@@H](C)C(=O)N(C)CCN(C)C)c(=O)n1-c1cccc(C(F)(F)F)c1` [Example 20, 5-[2-(4-Cyano-phenyl)-2H-pyrazol-3-yl]-4-methyl-2-oxo-3-(3-trifluoromethyl-phenyl)-2,3-dihydro-imidazole-1-carboxylic acid {(S)-1-[(2-dimethylamino-ethyl)-methyl-carbamoyl]-ethyl}-amide], the IC50 is under 1 nM.

In the case of `Cc1c(-c2ccnn2-c2ccc(C#N)cc2)n(C(=O)N[C@H](c2ncc(CN(C)C)o2)C(C)C)c(=O)n1-c1cccc(C(F)(F)F)c1` [Example 21, 5-[2-(4-Cyano-phenyl)-2H-pyrazol-3-yl]-4-methyl-2-oxo-3-(3-trifluoromethyl-phenyl)-2,3-dihydro-imidazole-1-carboxylic acid [(S)-1-(5-dimethylaminomethyl-oxazol-2-yl)-2-methyl-propyl]-amide], the half-inhibitory concentration (IC50) is under 1 nM.

Turning to `CC[C@H](NC(=O)n1c(-c2ccnn2-c2ccc(C#N)cc2)c(C)n(-c2cccc(C(F)(F)F)c2)c1=O)c1ncc(CN(C)C)o1` [Example 22, 5-[2-(4-Cyano-phenyl)-2H-pyrazol-3-yl]-4-methyl-2-oxo-3-(3-trifluoromethyl-phenyl)-2,3-dihydro-imidazole-1-carboxylic acid [(S)-1-(5-dimethylaminomethyl-oxazol-2-yl)-propyl]-amide], the IC50 is under 1 nM.

In the case of `Cc1c(-c2ccnn2-c2ccc(C#N)cc2)n(C(=O)NC2(c3ncc(CN(C)C)o3)CC2)c(=O)n1-c1cccc(C(F)(F)F)c1` [Example 23, 5-[2-(4-Cyano-phenyl)-2H-pyrazol-3-yl]-4-methyl-2-oxo-3-(3-trifluoromethyl-phenyl)-2,3-dihydro-imidazole-1-carboxylic acid [1-(5-dimethylaminomethyl-oxazol-2-yl)-cyclopropyl]-amide], the 50% inhibitory concentration (IC50) is under 1 nM.

In the case of `Cc1c(-c2ccnn2-c2ccc(C#N)cc2)n(C(=O)NC(C)(C)c2ncc(CN(C)C)o2)c(=O)n1-c1cccc(C(F)(F)F)c1` [Example 24, 5-[2-(4-Cyano-phenyl)-2H-pyrazol-3-yl]-4-methyl-2-oxo-3-(3-trifluoromethyl-phenyl)-2,3-dihydro-imidazole-1-carboxylic acid [1-(5-dimethylaminomethyl-oxazol-2-yl)-1-methyl-ethyl]-amide], the IC50 is under 1 nM.

For `Cc1c(-c2ccnn2-c2ccc(C#N)cc2)n(C(=O)NC2(C)CCN(C(=O)CN(C)C)CC2)c(=O)n1-c1cccc(C(F)(F)F)c1` [Example 25, 5-[2-(4-Cyano-phenyl)-2H-pyrazol-3-yl]-4-methyl-2-oxo-3-(3-trifluoromethyl-phenyl)-2,3-dihydro-imidazole-1-carboxylic acid [1-(2-dimethylamino-acetyl)-4-methyl-piperidin-4-yl]-amide], the IC50 was under 1 nM.

Turning to `Cc1c(-c2ccnn2-c2ccc(C#N)cc2)n(C(=O)N[C@H]2CC[C@H](NC(=O)CN(C)C)CC2)c(=O)n1-c1cccc(C(F)(F)F)c1` [Example 26, 5-[2-(4-Cyano-phenyl)-2H-pyrazol-3-yl]-4-methyl-2-oxo-3-(3-trifluoromethyl-phenyl)-2,3-dihydro-imidazole-1-carboxylic acid [trans-4-(2-dimethylamino-acetylamino)-cyclohexyl]-amide], the IC50 was under 1 nM.

`Cc1c(-c2ccnn2-c2ccc(C#N)cc2)n(C(=O)N[C@H]2CC[C@H](CNC(=O)CN(C)C)CC2)c(=O)n1-c1cccc(C(F)(F)F)c1` [Example 27, 5-[2-(4-Cyano-phenyl)-2H-pyrazol-3-yl]-4-methyl-2-oxo-3-(3-trifluoromethyl-phenyl)-2,3-dihydro-imidazole-1-carboxylic acid {trans-4-[(2-dimethylamino-acetylamino)-methyl]-cyclohexyl}-amide]: the IC50 is under 1 nM.

For `Cc1c(-c2ccnn2-c2ccc(C#N)cc2)n(C(=O)N[C@@H](C)C(=O)N(C)C2CCN(C)CC2)c(=O)n1-c1cccc(C(F)(F)F)c1` [Example 28, 5-[2-(4-Cyano-phenyl)-2H-pyrazol-3-yl]-4-methyl-2-oxo-3-(3-trifluoromethyl-phenyl)-2,3-dihydro-imidazole-1-carboxylic acid {(S)-1-[methyl-(1-methyl-piperidin-4-yl)-carbamoyl]-ethyl}-amide], the IC50 was under 1 nM.

Consider `Cc1c(-c2ccnn2-c2ccc(C#N)cc2)n(C(=O)N[C@H]2CC[C@H](C[N+](C)(C)C)CC2)c(=O)n1-c1cccc(C(F)(F)F)c1` [Example 29, (Trans-4-{[5-[2-(4-cyano-phenyl)-2H-pyrazol-3-yl]-4-methyl-2-oxo-3-(3-trifluoromethyl-phenyl)-2,3-dihydro-imidazole-1-carbonyl]-amino}-cyclohexylmethyl)-trimethyl-ammonium benzene sulfonate], for which the IC50 was under 1 nM.

For `Cc1c(-c2ccnn2-c2ccc(C#N)cc2)n(C(=O)N[C@H]2CC[C@H](C[N+](C)(C)Cc3ccccc3)CC2)c(=O)n1-c1cccc(C(F)(F)F)c1` [Example 30, Benzyl-(trans-4-{[5-[2-(4-cyano-phenyl)-2H-pyrazol-3-yl]-4-methyl-2-oxo-3-(3-trifluoromethyl-phenyl)-2,3-dihydro-imidazole-1-carbonyl]-amino}-cyclohexylmethyl)-dimethyl-ammonium bromide], the half-maximal inhibitory concentration (IC50) is under 1 nM.

On to `CC[N+](C)(C)C[C@H]1CC[C@H](NC(=O)n2c(-c3ccnn3-c3ccc(C#N)cc3)c(C)n(-c3cccc(C(F)(F)F)c3)c2=O)CC1` [Example 31, (Trans-4-{[5-[2-(4-cyano-phenyl)-2H-pyrazol-3-yl]-4-methyl-2-oxo-3-(3-trifluoromethyl-phenyl)-2,3-dihydro-imidazole-1-carbonyl]-amino}-cyclohexylmethyl)-ethyl-dimethyl-ammonium benzene sulfonate], for which the IC50 was under 1 nM.

As for `Cc1c(-c2ccnn2-c2ccc(C#N)cc2)n(C(=O)NC2CC[N+](C)(C)CC2)c(=O)n1-c1cccc(C(F)(F)F)c1` [Example 32, 4-{[5-[2-(4-Cyano-phenyl)-2H-pyrazol-3-yl]-4-methyl-2-oxo-3-(3-trifluoromethyl-phenyl)-2,3-dihydro-imidazole-1-carbonyl]-amino}-1,1-dimethyl-piperidinium benzenesulfonate], the 50% inhibitory concentration (IC50) is under 1 nM.

As for `Cc1c(-c2ccnn2-c2ccc(C#N)cc2)n(C(=O)N[C@@H]2CC[N+](C)(C)C2)c(=O)n1-c1cccc(C(F)(F)F)c1` [Example 33, (R)-3-{[5-[2-(4-Cyano-phenyl)-2H-pyrazol-3-yl]-4-methyl-2-oxo-3-(3-trifluoromethyl-phenyl)-2,3-dihydro-imidazole-1-carbonyl]-amino}-1,1-dimethyl-pyrrolidinium benzenesulfonate], the IC50 lay within 1 to 10 nM.

For the compound `Cc1c(-c2ccnn2-c2ccc(C#N)cc2)n(C(=O)N[C@H]2CC[N+](C)(C)C2)c(=O)n1-c1cccc(C(F)(F)F)c1` [Example 34, (S)-3-{[5-[2-(4-Cyano-phenyl)-2H-pyrazol-3-yl]-4-methyl-2-oxo-3-(3-trifluoromethyl-phenyl)-2,3-dihydro-imidazole-1-carbonyl]-amino}-1,1-dimethyl-pyrrolidinium benzenesulfonate], the half-inhibitory concentration (IC50) was under 1 nM.
